We go through nine compounds from patent US20150167016A1, “Plants Tolerant to HPPD Inhibitor Herbicides” (Bayer CropScience AG, priority 2009, published 2015).

Several values for one entry are separate records, joined by “and”; a condition that tells them apart may be missing. Equal entries are not always repeated. Where two headings read alike, the source gives them in different places. Bounds are passed on as bounds.

In experiment [1] the test system is Wild type tobacco plants. Put plainly: Glasshouse spray trial, herbicidal damage. In kind it is in vivo, Nicotiana tabacum. Conditions: individual plants, 100% = same bleaching as wild type. As for the experimental part: (§1) T0 Tobacco plants containing either the gene from Arabidopsis coding for HPPD or the gene FMP29e from Picrophilus torridus coding for FMP29 HPPD, mentioned above (Example3), were transferred to the glasshouse (28/20° C.), to develop further and produce seeds. Those seeds were harvested and put on soil (ED73 mixed with sand and osmocote Pro) to germinate in the glasshouse (28/20° C.). Three to four weeks later, plantlets were transferred to single pots containing the soil mentioned above. Two weeks later, plants of a size 4-6 cm diameter were sprayed with either • tembotrione at 100 gAl/ha prepared from a WP20 (wettable powder 20%) formulation supplemented with ammonium sulfate and methyl ester raps oil, or • isoxaflutole at 100 gAl/ha prepared from a WP20 formulation supplemented with ammonium sulfate and methyl ester raps oil, or • bicyclopyrone at 100 gAl/ha prepared from a WP20 formulation supplemented with ammonium sulfate and methyl ester raps oil, or • “blind formulation” made from a WP20 formulation without active ingredient (Al) supplemented with ammonium sulfate and methyl ester raps oil, and were then transferred to a growth chamber with adequate light conditions (20000 Lux).
(§2) Table 5: Wild type tobacco plants (A) and Ti populations of tobacco events containing alternatively, the expression cassettes described above having the promoter CaMV 35S, the sequence coding for OTP and the sequence coding for Arabidopsis HPPD (B) or the promoter CaMV35S, the sequence encoding OTP, and the sequence FMP29e coding for the HPPD FMP29 (C). Assessments of herbicidal damage at 7 days after application (DAT) per spray with 100 g Al/ha of tembotrione or isoxaflutole supplemented with ammonium sulfate and methyl ester raps oil. […] Plants belonging to categories (B) and (C) have not been selected for the presence of the respective transgene prior to the herbicide application.

Experiment [2] concerns T1 tobacco plants containing Arabidopsis HPPD. Kind of experiment: Glasshouse spray trial, herbicidal damage. In kind it is in vivo, Nicotiana tabacum. The conditions noted are these: not selected for transgene. The procedure:
as §1, §2

Experiment [3] deals with T1 tobacco plants containing FMP29e (Picrophilus torridus HPPD FMP29). Kind of experiment: Glasshouse spray trial, herbicidal damage. In kind it is in vivo, Nicotiana tabacum. The conditions noted are these: for tolerance of plants containing FMP29e gene: 7 DAT, 100 g Al/ha spray; for % injury, 7DAT, 100 g Al/ha: FMP29e, not selected for transgene. The procedure:
as §1, §2

For experiment [4], the system named is Picrophilus torridus HPPD "SEQ ID No. 5". Kind of experiment: biochemical. In kind it is biochemical.
The target in a further experiment is (UniProt Q6KZ98). Put plainly: biochemical. In kind it is biochemical, Picrophilus torridus. Conditions: read-out: pI50 (converted).
Experiment [5] deals with T1, Arabidopsis thaliana HPPD "SEQ ID No. 10" (Arabidopsis thaliana, UniProt P93836).
T1 construct: made in house; host or cells: E. coli K-12 BL21 (pQE30-AtHPPD)
T1 sequence (P93836 with tags, fused parts or gaps): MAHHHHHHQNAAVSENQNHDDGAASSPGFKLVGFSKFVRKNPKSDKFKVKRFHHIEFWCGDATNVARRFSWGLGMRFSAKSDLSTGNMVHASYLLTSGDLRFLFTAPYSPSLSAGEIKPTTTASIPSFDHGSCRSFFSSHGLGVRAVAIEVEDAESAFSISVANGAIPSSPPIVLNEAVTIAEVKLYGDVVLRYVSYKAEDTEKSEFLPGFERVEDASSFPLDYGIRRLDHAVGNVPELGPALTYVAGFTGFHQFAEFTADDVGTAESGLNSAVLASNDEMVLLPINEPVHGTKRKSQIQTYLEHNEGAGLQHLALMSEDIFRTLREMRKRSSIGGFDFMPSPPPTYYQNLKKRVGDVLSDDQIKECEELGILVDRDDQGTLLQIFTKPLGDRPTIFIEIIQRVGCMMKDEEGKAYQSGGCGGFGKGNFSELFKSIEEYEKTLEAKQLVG
Kind of experiment: HPPD activity in presence of HPPD inhibitors (spectrophotometric assay of WO 2009/144079). In kind it is biochemical.

Experiment [6] deals with T1 tobacco plants carrying FMP29e from Picrophilus torridus. Put plainly: Glasshouse response to bicyclopyrone, injury classes. In kind it is in vivo, Nicotiana tabacum. The conditions noted are these: 100 g Al/ha, 7 DAT. An excerpt: (§3) Seeds of wild type tobacco plants and T1 tobacco plants carrying the gene from Picrophilus torridus FMP29e coding for HPPD were sown on MS media (Murashige and Skoog […]) supplemented with […] kanamycin. After 4 weeks, rooted green plantlets were transferred to soil and grown for 3 weeks in the glasshouse as described above then sprayed with a mixture containing bicyclopyrone (100 g Al/ha), ammonium sulfate and methyl ester raps oil. The plants were classified in two categories based on the phenotype developed in response to the herbicide seven days after the treatment. […] In this case, only plants containing at least one T-DNA were exposed to the herbicidal treatment.

The subject of experiment [7] is Wild type tobacco plants. Described as above. In kind it is in vivo, Nicotiana tabacum. Conditions: WT; 100 g Al/ha, 7 DAT.
Text: as §3

For experiment [8], the system named is tobacco calli containing HPPD SEQ ID No. 7 (Picrophilus torridus). Put plainly: Rooting of calli on media with tembotrione. The conditions noted are these: calli containing SEQ ID No. 7, 6 to 12 weeks. In kind it is cell-based, Nicotiana tabacum. As for the experimental part: (§4) The leaf disks were co-cultivated for 2 days with Agrobacterium tumefaciens cells containing either the binary vector FMP29ebv or AtHPPDbv. Then the leaf disks were transferred to a media allowing the regeneration of shoots for 6 weeks on MS (Musharige and Skoog, (1962), Physiol Plant 15(3): 473-497) media supplemented with BAP (1 mg/mL; Benzylaminopurine), carbenicillin (250 mg/mL), cefotaxine (250 mg/mL), kanamycin (75 mg/mL) and tembotrione (10^−6 M) Regenerated calli were transferred on media to induce the development of roots for 6 to 12 weeks: MS (½), supplemented with carbenicillin (250 mg/mL), cefotaxine (250 mg/mL), kanamycin (75 mg/mL), and tembotrione (10^−6 M).
(§5) Regenerated shoot calli from a cell transformed with a nucleic acid sequence encoding an HPPD comprising SEQ ID No. 11 (Arabidopsis thaliana) or SEQ ID No. 7 (Picrophilus torridus) were transferred to a media inducing root growth which media was further supplemented with the HPPD inhibitor tembotrione for 6 to 12 weeks.

Experiment [9] concerns tobacco calli containing HPPD SEQ ID No. 11 (Arabidopsis thaliana). Kind of experiment: Rooting of calli on media with tembotrione. Conditions: calli containing SEQ ID No. 11; 6 to 12 weeks. In kind it is cell-based, Nicotiana tabacum. The procedure: as §4, §5
Where [10] appears, read: SEQ ID No. 5, 5.0 × 10^−6M inhibitor.
Where [11] appears, read: SEQ ID No. 5, 2 mM HPP, 3 minutes incubation, >> = far higher than indicated, not calculable in tested range 2.5 × 10^−6 to 2.5 × 10^−4M.
[12] abbreviates: FMP29e line 121, plants with at least one T-DNA.

With `CS(=O)(=O)c1cc(C(F)(F)F)ccc1C(=O)c1cnoc1C1CC1` [Isoxaflutole, (5-cyclopropyl-4-isoxazolyl)[2-(methylsulfonyl)-4-(trifluoromethyl)phenyl]methanone], the “% injury, 7DAT, 100 g Al/ha” value in the experiment with Wild type tobacco plants [1] was 98% and 99% (2×) and 100% (4×); in experiment [2] (line 252, individual T1 plants), 30% and 70% and 95% and 98% (2×) and 99% (4×) and 100% (4×); in experiment [2] (line 258, individual T1 plants) it was 100%; in [2] (line 327, individual T1 plants), 10% and 20% and 60% (2×) and 70% and 80% and 95% and 98% and 99% and 100% (6×); in experiment [3] (line 115, individual T1 plants), 0% and 2% and 5% and 10% and 15% and 30% (2×) and 40%; in [3] (line 292, individual T1 plants), 20% and 30% and 40%. Further, the “tolerance of plants containing FMP29e gene” value in [3] is “far more tolerant”.

For `Cc1ccc(C(=O)COc2c(C(=O)c3ccc(Cl)c(C)c3Cl)c(C)nn2C)cc1` [Benzofenap], the “percentage of inhibition compared to the activity measured in absence of the inhibitor” value (from here on “percentage of inhibition”) in experiment [4] (setting [10]) came out at 44%. Further, the IC50 at (UniProt Q6KZ98) was 15.8 µM.

On to `CS(=O)(=O)c1ccc(C(=O)C2C(=O)CCCC2=O)c(Cl)c1COCC1CCCO1` (centres unmarked) [Tefuryltrione, 2-[2-chloro-4-(methylsulfonyl)-3-[[(tetrahydro-2-furanyl)methoxy]methyl]benzoyl]-1,3-cyclohexanedione], for which, in [4] (setting [10]), the “percentage of inhibition” value is listed as 87. %. Moreover, at (UniProt Q6KZ98), the IC50 was 3.16 µM.

For `CS(=O)(=O)c1ccc(C(=O)C2C(=O)CCCC2=O)c([N+](=O)[O-])c1` [Mesotrione, 2-[4-(methylsulfonyl)-2-nitrobenzoyl]-1,3-cyclohexanedione], the “percentage of inhibition” value in [4] is reported as 84%.

For `Cc1nn(C)c(O)c1C(=O)c1ccc(C(F)(F)F)cc1S(C)(=O)=O` [Pyrasulfotole], the pI50 in experiment [4] (setting [11]) is 4.0; in experiment [5] (2 mM HPP, 3 minutes incubation, >> = far higher than indicated, not calculable in tested range 2.5 × 10^−6 to 2.5 × 10^−4M) it was 5.4. The “percentage of inhibition” value turned out to be 7% in experiment [4] (setting [10]) and 69% in experiment [5] (5.0 × 10^−6M inhibitor).

As to `CS(=O)(=O)c1ccc(C(=O)C2C(=O)CCCC2=O)c(Cl)c1` [Sulcotrione, 2-[2-chloro-4-(methylsulfonyl)benzoyl]-1,3-cyclohexanedione], in experiment [4], the pI50 is given as greater than 5.6 and the “percentage of inhibition” value was found to be 92%.

Consider `COCCOCc1nc(C(F)(F)F)ccc1C(=O)C1=C(O)C2CCC(C2)C1=O` (centres unmarked) [Bicyclopyrone, 4-hydroxy-3-[[2-[(2-methoxyethoxy)methyl]-6-(trifluoromethyl)-3-pyridinyl]carbonyl]bicyclo[3.2.1]oct-3-en-2-one], for which, in experiment [4] (setting [10]), the “percentage of inhibition” value came to 24%. Further, on (UniProt Q6KZ98), the IC50 is 398 µM. For the same compound, in experiment [6], the “tolerance of plants containing the HPPD FMP29” value is listed as “displayed tolerance”. Besides, the “% of tolerant plant” value in experiment [6] (FMP29e line 121) worked out at 2%; with Wild type tobacco plants [7], 0%. In addition, the “Class I (number of plants, injury: 0-30%)” value came out at 38 in [6] (setting [12]) and 0 with Wild type tobacco plants [7]. In addition, the “Class II (number of plants, injury: 31-100%)” value in experiment [6] (setting [12]) was 11; with Wild type tobacco plants [7] it was 12.

For `CS(=O)(=O)c1ccc(C(=O)C2C(=O)CCCC2=O)c(Cl)c1COCC(F)(F)F` [Tembotrione, 2-[2-chloro-4-(methylsulfonyl)-3-[(2,2,2,-tri-fluoroethoxy)methyl]benzoyl]-1,3-cyclo-hexanedione], the pI50 in [4] (setting [11]) is recorded as 5.5. Moreover, in experiment [4] (setting [10]), the “percentage of inhibition” value stood at 58%. The “% injury, 7DAT, 100 g Al/ha” value is 100% with Wild type tobacco plants [1]; 30% and 40% (3×) and 50% and 60% (2×) and 70% (2×) and 75% (3×) and 80% in experiment [2] (line 252, individual T1 plants); 100% (5×) and 30% in [2] (line 258, individual T1 plants); 10% and 20% (2×) and 40% and 50% and 0% and 70% (5×) and 80% (4×) in [2] (line 327, individual T1 plants); 30% and 40% and 50% (3×) in [3] (line 115, individual T1 plants); 20% (2×) and 30% and 40% (2×) in experiment [3] (line 292, individual T1 plants). Besides, in experiment [3], the “tolerance of plants containing FMP29e gene” value was “far more tolerant”. Besides, the “root growth on media supplemented with tembotrione” value in experiment [8] was “developed numerous and healthy roots”; in experiment [9], “On none of the events”. The “% Elongation & rooting on 10^−6M tembotrione” value in experiment [8] (10^−6M) was found to be 65%.

In the case of `CS(=O)(=O)c1cc(C(F)(F)F)ccc1C(=O)C(C#N)C(=O)C1CC1` (centres unmarked) [Diketonitrile, 2-cyano-3-cyclopropyl-1-(2-methylsulphonyl-4-trifluoromethylphenyl)-propane-1,3-dione], the “percentage of inhibition” value in [4] (setting [10]) stood at 26%. Moreover, the IC50 at (UniProt Q6KZ98) was 12.6 µM.
